Tests used:
Aurora A = biological target: T1, Aurora A (Homo sapiens, UniProt O14965); assay: Aurora A enzyme assay (Caliper LC3000 mobility shift); format: biochemical
T1 construct: N-terminal GST fusion with full length Aurora A (1-403 amino acids); purchased Carna Biosciences 05-101
T1 sequence (O14965 1-403): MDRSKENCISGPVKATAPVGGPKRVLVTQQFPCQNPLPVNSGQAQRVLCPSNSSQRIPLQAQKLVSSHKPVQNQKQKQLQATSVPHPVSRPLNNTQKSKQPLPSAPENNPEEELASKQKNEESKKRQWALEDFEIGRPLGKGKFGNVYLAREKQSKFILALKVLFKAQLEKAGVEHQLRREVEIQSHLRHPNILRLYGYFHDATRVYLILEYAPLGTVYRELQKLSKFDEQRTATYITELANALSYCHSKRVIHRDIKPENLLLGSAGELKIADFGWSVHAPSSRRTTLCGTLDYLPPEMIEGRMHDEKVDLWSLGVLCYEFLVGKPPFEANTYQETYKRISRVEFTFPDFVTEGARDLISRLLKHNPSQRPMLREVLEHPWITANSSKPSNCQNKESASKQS
Experimental: (§1) The Aurora and other kinase assays described here were performed on two Caliper Life Sciences systems, the LC3000 and the Desktop Profiler. These provide data on enzyme activity via measurement of the relative amounts of phosphorylated or unphosphorylated fluorescently labelled substrate peptide at the end of an enzymatic reaction. These different states of peptide are resolved by applying a potential difference across the sample. The presence of a charged phosphate group on the product (as opposed to the substrate) causes a different peptide mobility between the two peptides. This is visualized by excitation of a fluorescent label on the substrate and product peptides and represented as peaks within the analysis software.
For example, in order to measure inhibitor activity of Aurora A inhibitors in the Caliper Life Sciences LC3000, a TTP Mosquito liquid handling instrument was used to place […] of an appropriate concentration of inhibitor in 100% DMSO (for a dose response curve calculation) into each well of a 384-well plate. To this reaction components were added to a final volume of 25 μl: • 0.067 ng/μl GST-Aurora A (Carna Biosciences 05-101. N-terminal GST fusion with full length Aurora A (1-403 amino acids), accession number NP_940835.1). • 15 μM ATP (Fluka, 02055) • 1 mM DTT (Sigma, D0632) • 1 mM MgC12 (Sigma, M1028) • 1 μM substrate peptide (sequence FITC-LRRASLG-(CONH2), synthesized by Tufts Peptide Synthesis service. • 100 mM HEPES pH 7.5 (Calbiochem, 391338) • 0.015% Brij-35 (Sigma, B4184)
The reaction was incubated for 90 min at 25° C., and then stopped by the addition of 70 μl of Stop buffer (100 mM HEPES pH 7.5, 0.015% Brij-35, 10 mM EDTA (Sigma, E7889)).
The plate was read on a Caliper LC 3000 in an Off-Chip mobility shift assay format, using the following parameters for a 12-sipper chip: screening pressure −1.8 psi, upstream voltage −2700, downstream voltage −1000. These conditions cause unphosphorylated substrate and phosphorylated product peptide to resolve as separate peaks allowing direct measurement of percentage of conversion of substrate to product. The percent conversion was plotted against concentration of inhibitor to produce a sigmoidal dose response curve, from which an IC50 was calculated using XLFit for Microsoft Excel.

Aurora B = Aurora B (Homo sapiens, UniProt Q96GD4); assay: Aurora B enzyme assay (Caliper); format: biochemical
Experimental: as §1

A549 = assay: Cellular activity A549; format: cell-based; conditions: Homo sapiens
Experimental: (§2) The susceptibility of a particular cell to treatment with the compounds according to the invention was determined by in vitro tests. Typically, a culture of the cell was combined with a compound according to the invention at various concentrations for a period of time that was sufficient to allow the active agents to induce cell death or to inhibit migration, usually between about one hour and one week. In vitro testing was carried out using cultivated cells from a biopsy sample. The viable cells remaining after the treatment then were counted.

MiaPaca2 = assay: Cellular activity MiaPaca2; format: cell-based; conditions: Homo sapiens, MIA PaCa-2
Experimental: as §2

Sequence of Aurora B (Q96GD4 whole entry): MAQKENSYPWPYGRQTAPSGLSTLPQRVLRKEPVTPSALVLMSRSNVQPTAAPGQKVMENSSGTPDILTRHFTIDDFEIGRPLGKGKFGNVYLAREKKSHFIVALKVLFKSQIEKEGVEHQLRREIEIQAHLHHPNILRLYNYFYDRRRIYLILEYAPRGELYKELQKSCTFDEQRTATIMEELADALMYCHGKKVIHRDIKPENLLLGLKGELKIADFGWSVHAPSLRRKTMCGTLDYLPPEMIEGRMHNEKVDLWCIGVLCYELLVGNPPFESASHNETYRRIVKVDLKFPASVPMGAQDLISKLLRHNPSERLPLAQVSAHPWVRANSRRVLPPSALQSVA

Row | IC50 (Aurora A) [nM] | IC50 (Aurora B) [nM] | IC50 (A549) [nM] | IC50 (MiaPaca2) [nM] | SMILES
1 | 101 to 1000 | 101 to 1000 |  |  | Fc1cnc2nc1NC1CCCC(C1)OC/C=C/COc1cccc(c1)N2 (centres unmarked)
2 | 1000 to 6250 |  |  |  | Fc1cnc2nc1N[C@H]1CCC[C@@H](C1)OCCCCOc1cccc(c1)N2
3 | 101 to 1000 |  |  |  | Fc1cnc2nc1N[C@@H]1CCC[C@H](C1)OCCCCOc1cccc(c1)N2
4 | 101 to 1000 |  |  |  | O[C@@H]1COc2cccc(c2)Nc2ncc(F)c(n2)NC2CCCC(C2)OC[C@@H]1O (some centres unmarked)
5 | 101 to 1000 |  |  |  | O[C@@H]1COC2CCCC(C2)Nc2nc(ncc2F)Nc2cccc(c2)OC[C@@H]1O (some centres unmarked)
6 | 101 to 1000 |  |  |  | Fc1cnc2nc1NC1CCC(CC1)OC/C=C/COc1cccc(c1)N2
7 | 101 to 1000 | > 6250 |  |  | Fc1cnc2nc1NC1CCC(CC1)OC/C=C\COc1cccc(c1)N2
8 | 1000 to 6250 |  |  |  | CCC1CC2[C@H](O)C(O)COc3cccc(c3)Nc3ncc(F)c(n3)N[C@H]2[C@H]1C(N)=O (some centres unmarked)
9 | 1000 to 6250 |  |  |  | NC(=O)[C@H]1C([C@@H](O)CO)CC2[C@H]1Nc1nc(ncc1F)Nc1cccc(c1)OC[C@H](O)[C@H]2O (some centres unmarked)
10 | 1000 to 6250 |  |  |  | NC(=O)[C@H]1C([C@@H](O)CO)CC2C(O)[C@H](O)COc3cccc(c3)Nc3ncc(F)c(n3)N[C@H]21 (some centres unmarked)
11 | 1 to 100 |  | 101 to 1000 | 101 to 1000 | NC(=O)[C@H]1[C@H]2C[C@H]3[C@H]1Nc1nc(ncc1F)Nc1cccc(c1)C(O)CS[C@@H]3C2 (some centres unmarked)
12 | 1 to 100 | 1 to 100 | 1000 to 6250 | 1000 to 6250 | NC(=O)[C@H]1[C@H]2C[C@H]3[C@H]1Nc1nc(ncc1F)Nc1cccc(c1)CC[S+]([O-])[C@@H]3C2 (some centres unmarked)
13 | 1 to 100 | 1 to 100 | 1000 to 6250 | 1000 to 6250 | NC(=O)[C@H]1[C@H]2C[C@H]3[C@H]1Nc1nc(ncc1F)Nc1cccc(c1)CCS(=O)(=O)[C@@H]3C2
14 | 1 to 100 | 1 to 100 | > 6250 | > 6250 | NC(=O)[C@H]1[C@@H]2CC3NNC(=O)Cc4cccc(c4)Nc4ncc(F)c(n4)N[C@@H]1[C@@H]3C2 (some centres unmarked)
15 | 1000 to 6250 |  | > 6250 | > 6250 | NC[C@H]1[C@H]2C[C@H]3[C@H]1Nc1nc(ncc1F)Nc1cccc(c1)C(O)CS[C@@H]3C2 (some centres unmarked)
16 | 101 to 1000 |  |  |  | NC(=O)[C@H]1[C@H]2C[C@H]3[C@H]1Nc1nc(ncc1F)Nc1cccc(c1)/C=C\S[C@@H]3C2
17 | 101 to 1000 |  | > 6250 | > 6250 | C=CC(=O)NC[C@H]1[C@H]2C[C@H]3[C@H]1Nc1nc(ncc1F)Nc1cccc(c1)C(O)CS[C@@H]3C2 (some centres unmarked)
18 | 1 to 100 |  | 1000 to 6250 | 1000 to 6250 | NC(=O)[C@H]1[C@H]2C[C@H]3[C@H]1Nc1nc(ncc1F)Nc1cccc(c1)[C@H](OCCO)CS[C@@H]3C2
19 | 1 to 100 |  |  |  | NC(=O)[C@H]1[C@H]2C[C@H]3[C@H]1Nc1nc(ncc1F)Nc1cnn(c1)CCS[C@@H]3C2
20 | 1 to 100 |  |  |  | NC(=O)[C@H]1[C@@H]2CC3CNC(=O)Cc4cccc(c4)Nc4ncc(F)c(n4)N[C@@H]1[C@@H]3C2 (some centres unmarked)
21 | 1 to 100 |  | 1000 to 6250 | 1000 to 6250 | CN1CCN(c2ccc3cc2C(=O)CS[C@@H]2C[C@@H]4C[C@H]2[C@@H](Nc2nc(ncc2F)N3)[C@H]4C(N)=O)CC1
22 | 1 to 100 | 1 to 100 |  |  | CN1CCN(c2ccc3cc2C(O)CS(=O)(=O)[C@@H]2C[C@@H]4C[C@H]2[C@@H](Nc2nc(ncc2F)N3)[C@H]4C(N)=O)CC1 (some centres unmarked)

Row | IC50 (Aurora A) [nM] | IC50 (Aurora B) [nM] | IC50 (A549) [nM] | IC50 (MiaPaca2) [nM] | SMILES
23 | 1 to 100 | 1000 to 6250 |  |  | CN1CCN(c2ccc3cc2C(=O)CS(=O)(=O)[C@@H]2C[C@@H]4C[C@H]2[C@@H](Nc2nc(ncc2F)N3)[C@H]4C(N)=O)CC1
24 | 1 to 100 | 1 to 100 | 101 to 1000 | 101 to 1000 | CN1CCC(c2ccc3cc2OCCS[C@@H]2C[C@@H]4C[C@H]2[C@@H](Nc2nc(ncc2F)N3)[C@H]4C(N)=O)CC1
25 | 101 to 1000 | 1000 to 6250 |  |  | NC(=O)[C@H]1[C@H]2C[C@H]3[C@H]1Nc1nc(ncc1F)Nc1cccc(c1)N(Cc1cccs1)C(=O)CS[C@@H]3C2
26 | 1000 to 6250 | 1000 to 6250 |  |  | NC(=O)[C@H]1[C@H]2C[C@H]3[C@H]1Nc1nc(ncc1F)Nc1cc(ccc1O)C(=O)CS[C@@H]3C2
27 | 101 to 1000 | 101 to 1000 | > 6250 | > 6250 | Nc1ccc(/C=C/NC(=O)[C@H]2[C@H]3C[C@H]4[C@H]2Nc2nc(ncc2F)Nc2cccc(c2)C(=O)CS[C@@H]4C3)cc1
28 | 1 to 100 | 1 to 100 | 1000 to 6250 | 1000 to 6250 | NC(=O)[C@H]1[C@H]2C[C@H]3[C@H]1Nc1nc(ncc1F)Nc1cccc(c1)OCCCS[C@@H]3C2
29 | 1000 to 6250 | 1000 to 6250 |  |  | NC(=O)[C@H]1[C@H]2C[C@H]3[C@H]1Nc1nc(ncc1F)Nc1ccc(F)c(c1)CC(=O)O[C@@H]3C2
30 | 101 to 1000 | 101 to 1000 | 1000 to 6250 | 1000 to 6250 | NC(=O)[C@H]1[C@H]2C[C@H]3[C@H]1Nc1nc(ncc1F)Nc1cccc(c1)CCC(=O)O[C@@H]3C2
31 | 1000 to 6250 | > 6250 |  |  | CC(=O)N1Cc2cccc(c2)Nc2ncc(F)c(n2)N[C@@H]2[C@@H]3C[C@@H](C[C@H]3C1)[C@@H]2C(=O)O
32 | 1 to 100 | 1 to 100 | 1000 to 6250 | 1000 to 6250 | NC(=O)[C@H]1[C@@H]2C[C@H]3CNS(=O)(=O)c4cccc(c4)Nc4ncc(F)c(n4)N[C@@H]1[C@@H]3C2
33 | 101 to 1000 | 1 to 100 | 101 to 1000 | 101 to 1000 | CN1CCN(c2ccc3cc2OCCN[C@@H]2C[C@@H]4C[C@H]2[C@@H](Nc2nc(ncc2F)N3)[C@H]4C(N)=O)CC1
34 | 1 to 100 | 1 to 100 |  |  | CN1CCN(c2ccc3cc2OCCN(C)[C@@H]2C[C@@H]4C[C@H]2[C@@H](Nc2nc(ncc2F)N3)[C@H]4C(N)=O)CC1
35 | 1 to 100 | 1 to 100 | 1000 to 6250 | 1000 to 6250 | NC(=O)[C@H]1[C@H]2C[C@H]3[C@H]1Nc1nc(ncc1F)Nc1ccc(F)c(c1)CC(=O)N[C@@H]3C2
36 | 1000 to 6250 | 101 to 1000 |  |  | NC(=O)[C@H]1[C@H]2C[C@H]3[C@H]1Nc1nc(ncc1F)Nc1cccc(c1)NC(=O)CN[C@@H]3C2
37 | 1 to 100 | 1 to 100 | 1000 to 6250 | 1000 to 6250 | CN1CCN(c2ccc3cc2NC(=O)CN[C@@H]2C[C@@H]4C[C@H]2[C@@H](Nc2nc(ncc2F)N3)[C@H]4C(N)=O)CC1
38 | 101 to 1000 | 101 to 1000 | 1000 to 6250 | 1000 to 6250 | NC(=O)[C@H]1[C@H]2C[C@H]3[C@H]1Nc1nc(ncc1F)Nc1cccc(c1)CCC(=O)N[C@@H]3C2
39 | 101 to 1000 | 1 to 100 | 1000 to 6250 | 1000 to 6250 | NC(=O)[C@H]1[C@H]2C[C@H]3[C@H]1Nc1nc(ncc1F)Nc1cccc(c1)CCN[C@@H]3C2
40 | 101 to 1000 | 1 to 100 | 1000 to 6250 | 1000 to 6250 | NC(=O)[C@H]1[C@H]2C[C@H]3[C@H]1Nc1nc(ncc1F)Nc1cccc(c1)C(O)CN[C@@H]3C2 (some centres unmarked)
41 | 101 to 1000 | 101 to 1000 |  |  | NC(=O)[C@H]1[C@H]2C[C@H]3[C@H]1Nc1nc(ncc1F)Nc1cccc(c1)CS(=O)(=O)N[C@@H]3C2
42 | 1 to 100 |  | 1000 to 6250 | 1000 to 6250 | NC(=O)[C@H]1[C@H]2C[C@H]3[C@H]1Nc1nc(ncc1F)Nc1cccc(c1)COCc1cn(nn1)[C@@H]3C2
43 | 101 to 1000 |  |  |  | NC(=O)[C@H]1[C@H]2C[C@H]3[C@H]1Nc1nc(ncc1F)Nc1cccc(c1)S(=O)(=O)NC(=O)N[C@@H]3C2

Row | SMILES | IC50 (Aurora A) [nM] | IC50 (Aurora B) [nM] | IC50 (A549) [nM] | IC50 (MiaPaca2) [nM]
44 | Fc1cnc2nc1NC1CCCC(C1)OC/C=C\COc1cccc(c1)N2 (centres unmarked) | 101 to 1000 | 101 to 1000 |  | 
